Experiment [1] addresses T1, Tyrosine-protein phosphatase non-receptor type 7 (Homo sapiens, UniProt P35236).
T1 sequence (P35236 whole entry): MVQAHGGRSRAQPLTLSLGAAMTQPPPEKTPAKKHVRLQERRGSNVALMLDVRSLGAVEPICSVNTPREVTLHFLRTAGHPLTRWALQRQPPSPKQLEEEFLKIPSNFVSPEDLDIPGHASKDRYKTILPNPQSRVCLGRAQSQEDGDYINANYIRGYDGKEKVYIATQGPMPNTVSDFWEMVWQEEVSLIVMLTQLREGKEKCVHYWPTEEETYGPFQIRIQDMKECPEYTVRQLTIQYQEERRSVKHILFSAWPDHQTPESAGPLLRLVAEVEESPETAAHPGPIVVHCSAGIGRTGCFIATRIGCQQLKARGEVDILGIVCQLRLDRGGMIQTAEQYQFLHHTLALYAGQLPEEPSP
The format is functional.

The target of experiment [2] is T2, Zinc finger protein mex-5 (Caenorhabditis elegans, UniProt Q9XUB2).
T2 sequence (Q9XUB2 whole entry): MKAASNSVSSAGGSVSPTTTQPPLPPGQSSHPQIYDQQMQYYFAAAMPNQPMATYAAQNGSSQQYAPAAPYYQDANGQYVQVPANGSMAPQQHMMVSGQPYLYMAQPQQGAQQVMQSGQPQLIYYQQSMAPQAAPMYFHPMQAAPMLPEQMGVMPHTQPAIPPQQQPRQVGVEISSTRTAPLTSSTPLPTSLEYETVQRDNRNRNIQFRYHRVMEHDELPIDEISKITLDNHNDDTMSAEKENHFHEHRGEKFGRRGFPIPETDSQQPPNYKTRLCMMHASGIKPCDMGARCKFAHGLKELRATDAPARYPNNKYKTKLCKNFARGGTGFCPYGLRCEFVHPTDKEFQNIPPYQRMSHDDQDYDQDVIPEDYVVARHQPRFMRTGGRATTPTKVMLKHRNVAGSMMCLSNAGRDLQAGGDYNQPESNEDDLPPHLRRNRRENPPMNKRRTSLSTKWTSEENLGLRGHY
In words: MEX-5/TCR-2 RNA interaction inhibitors, dose response, biochemical, C. elegans, fluorescence polarization (AID 1960).

In experiment [3] the target is Runt-related transcription factor 1/Core-binding factor subunit beta (Homo sapiens, UniProt Q01196+Q13951). Briefly: inhibitors of RUNX1 Runt–CBFb-SMMHC binding, biochemical, TR-FRET (AID 1438). The format is protein assay.
Experiment [4] addresses Voltage-gated N-type calcium channel alpha-1B subunit/Amyloid beta A4 precursor protein-binding family A member 1 (Homo sapiens, UniProt Q00975+Q02410). The format is protein assay.
The target of experiment [5] is Eukaryotic translation initiation factor 4E (Mus musculus, UniProt P63073). Briefly: eIF4E–eIF4G protein interaction inhibitors, dose response, biochemical, TR-FRET (AID 855).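 Note: potency for disrupting eIF4E binding to eIF4GI seen as loss of FRET.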 The class given is functional. (Time-resolved FRET reads energy transfer from a long-lived donor to a nearby acceptor.)
In experiment [6] the target is T3, Ubiquitin-conjugating enzyme E2 N (Homo sapiens, UniProt P61088).
T3 sequence (P61088 whole entry): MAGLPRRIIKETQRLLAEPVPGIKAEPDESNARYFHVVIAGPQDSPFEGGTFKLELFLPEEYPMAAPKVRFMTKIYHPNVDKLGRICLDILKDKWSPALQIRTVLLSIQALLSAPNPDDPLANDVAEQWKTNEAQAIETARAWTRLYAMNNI
The class given is functional.

For another experiment, the system named is BJ. In words: cells. The following applies: Homo sapiens. The class given is functional, cell-based.
The target in experiment [7] is Heat shock protein HSP 90-alpha (Homo sapiens, UniProt P07900). In words: Luminescence-based dose response biochemical high throughput screening assay for inhibitors of the Heat Shock Protein 90 (HSP90). [Related pubchem assays: 1831 (Summary AID.), 1846 (Confirmation screen.), 1789 (Primary screen.)].
In experiment [8] the target is Intestinal-type alkaline phosphatase (Homo sapiens, UniProt P09923). In words: inhibition of human intestinal alkaline phosphatase – biochemical, dose response (AID 488876). The class given is functional.
Experiment [9] addresses Ribosomal protein S6 kinase alpha-3 (Homo sapiens, UniProt P51812). The class given is functional.
Experiment [10] has as its target Macrophage-stimulating protein receptor (Homo sapiens, UniProt Q04912). Briefly: Navigating the Kinome. Panel member name: MST1R. The format is functional.
Experiment [11] deals with Inhibitor of nuclear factor kappa-B kinase subunit epsilon (Homo sapiens, UniProt Q14164). Briefly: Navigating the Kinome. Panel member name: IKBKE. The format is functional.
A short description of experiment [12]: AlphaScreen signal interference compounds, dose response, artefact control for ARNT-TACC3 interaction inhibitor project, biochemical, luminescence, cherry-pick (AID 651705).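 Note: AlphaScreen bead proximity signal that flags compounds interfering with the detection technology; potency reflects signal decrease which marks the compound as an assay artifact.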 The class given is functional. A general note: Bead proximity is the source of the signal in Alpha formats.
In experiment [13] the target is Serine/threonine-protein kinase PLK4 (Homo sapiens, UniProt O00444). The class given is functional.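 Note: PLK4 measured as one member of a kinome-wide kinase profiling panel.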
The target of experiment [14] is MAP/microtubule affinity-regulating kinase 4 (Homo sapiens, UniProt Q96L34). Briefly: Navigating the Kinome. Panel member name: MARK4. The format is functional.
In experiment [15] the target is Testis-specific serine/threonine-protein kinase 2 (Homo sapiens, UniProt Q96PF2). The format is functional.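 Note: part of the Navigating the Kinome panel, target entry STK22B.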
Experiment [16] addresses Cyclin-dependent kinase 2 (Homo sapiens, UniProt P24941). The class given is functional.
The target of experiment [17] is Tyrosine-protein kinase BTK (Homo sapiens, UniProt Q06187). The format is functional.
In experiment [18] the target is Casein kinase I isoform gamma-1 (Homo sapiens, UniProt Q9HCP0). The class given is functional.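 Note: measured as the CSNK1G1 member of a kinome profiling panel.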
The target of experiment [19] is Tyrosine-protein kinase Blk (Homo sapiens, UniProt P51451). The format is functional.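 Note: obtained as one member of a kinome-wide kinase assay panel.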
The target in experiment [20] is Tyrosine-protein kinase Srms (Homo sapiens, UniProt Q9H3Y6). The class given is functional.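 Note: SRMS measured as one member of a kinome-wide kinase profiling panel.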
In experiment [21] the target is Calcium/calmodulin-dependent protein kinase type II subunit beta (Homo sapiens, UniProt Q13554). The format is functional.
In experiment [22] the target is Maternal embryonic leucine zipper kinase (Homo sapiens, UniProt Q14680). The format is functional.
Experiment [23] deals with Tyrosine-protein kinase Fer (Homo sapiens, UniProt P16591). The class given is functional.
Experiment [24] has as its target Tyrosine-protein kinase receptor UFO (Homo sapiens, UniProt P30530). The class given is functional.

Activity calls are given as the source filed them.

Here are results for six compounds from ChEMBL document CHEMBL1201862, “PubChem BioAssay data set” (2004).

Ribosomal protein S6 kinase alpha-3, sequence (P51812 whole entry): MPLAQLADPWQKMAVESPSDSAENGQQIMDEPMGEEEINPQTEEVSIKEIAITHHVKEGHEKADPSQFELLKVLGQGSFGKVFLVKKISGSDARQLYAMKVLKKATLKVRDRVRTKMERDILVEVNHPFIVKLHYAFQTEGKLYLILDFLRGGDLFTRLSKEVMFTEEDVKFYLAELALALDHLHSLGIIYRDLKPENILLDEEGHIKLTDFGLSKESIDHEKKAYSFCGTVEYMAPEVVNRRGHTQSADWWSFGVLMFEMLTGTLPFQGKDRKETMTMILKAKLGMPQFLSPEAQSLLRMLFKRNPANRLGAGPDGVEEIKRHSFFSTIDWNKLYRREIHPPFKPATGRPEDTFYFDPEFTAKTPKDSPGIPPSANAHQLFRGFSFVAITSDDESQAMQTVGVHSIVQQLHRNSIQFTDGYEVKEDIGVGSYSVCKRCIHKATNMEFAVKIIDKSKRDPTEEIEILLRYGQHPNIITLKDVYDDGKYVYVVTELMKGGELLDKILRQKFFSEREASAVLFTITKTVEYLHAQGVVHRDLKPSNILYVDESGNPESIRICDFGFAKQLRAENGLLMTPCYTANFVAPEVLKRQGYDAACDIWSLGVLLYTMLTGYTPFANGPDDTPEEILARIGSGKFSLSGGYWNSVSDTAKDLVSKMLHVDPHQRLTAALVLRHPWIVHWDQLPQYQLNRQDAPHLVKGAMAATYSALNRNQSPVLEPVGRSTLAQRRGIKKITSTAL
Tyrosine-protein kinase BTK, sequence (Q06187 whole entry, canonical isoform): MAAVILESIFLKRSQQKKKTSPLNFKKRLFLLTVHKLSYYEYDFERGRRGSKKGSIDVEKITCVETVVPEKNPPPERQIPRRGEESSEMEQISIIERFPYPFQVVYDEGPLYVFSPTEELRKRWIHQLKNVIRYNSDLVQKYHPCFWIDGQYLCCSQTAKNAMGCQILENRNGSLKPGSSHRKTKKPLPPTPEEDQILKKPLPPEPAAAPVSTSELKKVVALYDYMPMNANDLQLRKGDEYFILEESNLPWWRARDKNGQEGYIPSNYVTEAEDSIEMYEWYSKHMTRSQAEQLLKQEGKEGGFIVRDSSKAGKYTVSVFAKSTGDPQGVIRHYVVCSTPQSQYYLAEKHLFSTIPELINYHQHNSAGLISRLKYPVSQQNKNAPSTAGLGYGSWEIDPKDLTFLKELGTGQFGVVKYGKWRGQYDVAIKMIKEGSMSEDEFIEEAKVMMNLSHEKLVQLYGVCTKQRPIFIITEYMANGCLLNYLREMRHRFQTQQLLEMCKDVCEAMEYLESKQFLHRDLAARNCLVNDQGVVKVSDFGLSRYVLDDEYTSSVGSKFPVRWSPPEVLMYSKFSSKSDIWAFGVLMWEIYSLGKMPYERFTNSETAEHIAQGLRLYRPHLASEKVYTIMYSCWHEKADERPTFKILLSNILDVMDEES
Intestinal-type alkaline phosphatase, sequence (P09923 whole entry): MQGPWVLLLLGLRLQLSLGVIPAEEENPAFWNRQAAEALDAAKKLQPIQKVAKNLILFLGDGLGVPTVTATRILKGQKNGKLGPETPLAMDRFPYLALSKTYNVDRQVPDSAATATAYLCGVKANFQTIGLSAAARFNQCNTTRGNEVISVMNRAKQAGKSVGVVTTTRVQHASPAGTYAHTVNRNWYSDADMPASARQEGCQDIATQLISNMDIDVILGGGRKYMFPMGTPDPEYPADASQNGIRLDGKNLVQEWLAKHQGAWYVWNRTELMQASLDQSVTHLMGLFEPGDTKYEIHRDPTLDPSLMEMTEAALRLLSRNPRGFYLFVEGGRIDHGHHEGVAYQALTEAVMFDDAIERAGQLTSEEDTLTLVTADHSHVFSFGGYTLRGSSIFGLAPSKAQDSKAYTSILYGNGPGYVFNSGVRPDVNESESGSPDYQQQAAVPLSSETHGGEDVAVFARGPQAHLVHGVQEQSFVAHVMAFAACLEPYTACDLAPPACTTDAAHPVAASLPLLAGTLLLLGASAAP
Eukaryotic translation initiation factor 4E, sequence (P63073 whole entry): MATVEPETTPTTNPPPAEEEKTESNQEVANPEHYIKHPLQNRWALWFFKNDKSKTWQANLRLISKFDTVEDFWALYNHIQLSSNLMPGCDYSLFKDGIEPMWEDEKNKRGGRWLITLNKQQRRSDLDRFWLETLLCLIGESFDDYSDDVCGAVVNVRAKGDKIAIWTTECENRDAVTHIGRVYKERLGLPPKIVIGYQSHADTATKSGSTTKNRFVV
Tyrosine-protein kinase Fer, sequence (P16591 whole entry): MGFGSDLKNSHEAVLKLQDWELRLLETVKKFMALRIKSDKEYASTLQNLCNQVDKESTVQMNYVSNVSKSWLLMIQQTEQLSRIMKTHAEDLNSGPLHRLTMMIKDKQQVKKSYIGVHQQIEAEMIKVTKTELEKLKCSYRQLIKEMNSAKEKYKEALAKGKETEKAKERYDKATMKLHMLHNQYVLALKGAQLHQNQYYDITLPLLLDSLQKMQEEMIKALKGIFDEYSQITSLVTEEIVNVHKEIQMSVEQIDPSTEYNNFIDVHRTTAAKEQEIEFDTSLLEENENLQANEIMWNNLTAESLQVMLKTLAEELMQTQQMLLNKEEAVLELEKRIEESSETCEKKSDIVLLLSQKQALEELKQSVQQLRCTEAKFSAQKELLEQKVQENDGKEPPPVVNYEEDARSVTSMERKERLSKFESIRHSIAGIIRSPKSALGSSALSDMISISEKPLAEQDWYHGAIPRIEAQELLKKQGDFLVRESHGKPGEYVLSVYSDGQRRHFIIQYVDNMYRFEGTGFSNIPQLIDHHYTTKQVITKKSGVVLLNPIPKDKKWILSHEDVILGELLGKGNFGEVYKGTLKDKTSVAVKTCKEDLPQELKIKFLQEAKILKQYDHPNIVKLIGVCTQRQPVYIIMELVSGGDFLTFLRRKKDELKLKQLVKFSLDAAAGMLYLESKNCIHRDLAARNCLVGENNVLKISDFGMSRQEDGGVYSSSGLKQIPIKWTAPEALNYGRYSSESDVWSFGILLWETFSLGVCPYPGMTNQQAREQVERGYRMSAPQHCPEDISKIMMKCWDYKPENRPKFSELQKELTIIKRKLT
Tyrosine-protein kinase Blk, sequence (P51451 whole entry): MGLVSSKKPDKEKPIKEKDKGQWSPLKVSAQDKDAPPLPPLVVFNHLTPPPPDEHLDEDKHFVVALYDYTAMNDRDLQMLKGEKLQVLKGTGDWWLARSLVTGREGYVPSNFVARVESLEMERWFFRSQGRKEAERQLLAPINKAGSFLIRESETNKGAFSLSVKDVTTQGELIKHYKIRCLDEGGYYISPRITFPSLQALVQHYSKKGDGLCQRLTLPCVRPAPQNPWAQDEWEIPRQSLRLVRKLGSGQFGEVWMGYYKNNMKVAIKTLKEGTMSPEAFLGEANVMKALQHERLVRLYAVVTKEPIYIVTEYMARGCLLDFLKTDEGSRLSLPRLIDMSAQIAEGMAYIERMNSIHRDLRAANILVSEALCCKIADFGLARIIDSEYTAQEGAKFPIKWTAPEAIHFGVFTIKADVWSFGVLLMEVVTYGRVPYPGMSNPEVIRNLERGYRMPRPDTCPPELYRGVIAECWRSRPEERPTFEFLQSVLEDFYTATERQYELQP
Maternal embryonic leucine zipper kinase, sequence (Q14680 whole entry): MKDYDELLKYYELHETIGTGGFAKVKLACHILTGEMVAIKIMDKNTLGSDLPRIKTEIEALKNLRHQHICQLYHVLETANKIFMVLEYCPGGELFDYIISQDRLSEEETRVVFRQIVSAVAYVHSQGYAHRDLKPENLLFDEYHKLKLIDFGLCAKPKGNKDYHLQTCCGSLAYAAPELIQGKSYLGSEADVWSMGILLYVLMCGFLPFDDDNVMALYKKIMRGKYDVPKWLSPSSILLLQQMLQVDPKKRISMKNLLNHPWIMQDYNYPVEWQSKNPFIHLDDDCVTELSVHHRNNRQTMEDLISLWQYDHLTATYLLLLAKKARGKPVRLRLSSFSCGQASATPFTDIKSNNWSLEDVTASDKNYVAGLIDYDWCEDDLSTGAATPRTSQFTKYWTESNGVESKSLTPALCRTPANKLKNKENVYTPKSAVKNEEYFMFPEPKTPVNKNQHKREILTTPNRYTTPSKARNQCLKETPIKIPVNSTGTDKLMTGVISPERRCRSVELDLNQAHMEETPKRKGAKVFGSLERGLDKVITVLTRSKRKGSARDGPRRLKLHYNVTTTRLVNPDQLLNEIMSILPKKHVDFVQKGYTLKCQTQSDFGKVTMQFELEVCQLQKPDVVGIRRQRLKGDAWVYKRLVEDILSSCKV
MAP/microtubule affinity-regulating kinase 4, sequence (Q96L34 whole entry): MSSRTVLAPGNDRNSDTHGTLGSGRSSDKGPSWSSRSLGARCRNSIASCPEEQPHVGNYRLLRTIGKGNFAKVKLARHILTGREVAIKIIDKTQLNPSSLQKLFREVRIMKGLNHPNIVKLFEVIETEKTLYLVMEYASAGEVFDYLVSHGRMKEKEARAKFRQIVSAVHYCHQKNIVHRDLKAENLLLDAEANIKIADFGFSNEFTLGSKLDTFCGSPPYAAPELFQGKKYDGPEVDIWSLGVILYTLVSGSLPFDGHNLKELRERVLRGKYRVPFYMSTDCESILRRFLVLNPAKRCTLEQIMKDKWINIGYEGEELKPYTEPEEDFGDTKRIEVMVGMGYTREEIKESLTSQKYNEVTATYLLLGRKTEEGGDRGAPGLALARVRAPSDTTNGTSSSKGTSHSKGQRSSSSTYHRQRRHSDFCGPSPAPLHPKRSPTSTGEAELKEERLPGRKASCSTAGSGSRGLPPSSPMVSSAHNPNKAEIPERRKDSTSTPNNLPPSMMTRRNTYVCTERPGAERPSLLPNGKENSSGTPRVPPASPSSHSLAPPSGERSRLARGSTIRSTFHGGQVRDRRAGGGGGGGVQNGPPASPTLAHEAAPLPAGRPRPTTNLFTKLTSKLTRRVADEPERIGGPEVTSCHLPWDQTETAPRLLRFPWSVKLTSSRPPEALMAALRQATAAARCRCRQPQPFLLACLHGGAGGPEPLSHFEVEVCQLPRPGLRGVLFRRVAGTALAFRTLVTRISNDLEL

The IC50 is the point on the concentration scale where inhibition reaches its midpoint. A word on the EC50: it is the concentration giving half of the maximal effect. Turning to `COc1cccc2c1NC(C(=O)O)C1CC=CC21` (stereo not given), the IC50 is 11.3 µM (active) in experiment [1]; 15.4 µM (active) in experiment [3]; 4.46 µM (active) in experiment [4]; 12.8 µM (active) in experiment [5]; > 20 µM (inactive) in [6]. Further, the EC50 in experiment [2] was 8.25 µM (active).
`CCc1ccc(S(=O)(=O)/N=C2\C=C(Nc3ccc(O)cc3)C(=O)c3ccccc32)cc1`: in the experiment on BJ, the concentration giving a half-maximal response (EC50) is 2.96 µM (active). Besides, in experiment [7], the IC50 is 1.28 µM (active).
As to `O=C1/C(=C\c2cccc(O)c2O)SC(=S)N1Cc1ccccc1`, the IC50 in experiment [8] is > 100 µM (inactive).
What is called Ki is a dissociation constant, usually derived from enzyme kinetics or from competition with a known ligand. For `COc1c(-c2nc3ccccc3[nH]2)c(O)cc2oc(C)cc(=O)c12`, the figures for the inhibition constant (Ki) in [9], in experiment [10] and in experiment [11] were 0.794 µM (active), 1.58 µM (active) and 2 µM (active), respectively.
In general, AC50 refers to the midpoint of the concentration-response curve, whichever way the signal moves. For `Cc1cc([N+](=O)[O-])cc(/C=N\NC(=O)C2COc3ccccc3O2)c1O` (stereo not given), the AC50 in [12] is 93.6 µM (active).
Take `Cc1ccc(F)c(NC(=O)Nc2ccc(-c3cccc4[nH]nc(N)c34)cc2)c1` [LINIFANIB]: the Ki in experiment [13] is 0.631 µM (active); in experiment [14] it was > 5.01 µM (inactive); in [15] it was > 1.58 µM (inactive); in experiment [16], > 7.94 µM (inactive); in experiment [17] it was > 6.31 µM (inactive); in experiment [18], 5.01 µM (active). Moreover, the inhibition constant (Ki) was 0.316 µM (active) in [19]; 1.58 µM (active) in experiment [20]; 3.98 µM (active) in [21]; 2 µM (active) in experiment [22]; 0.501 µM (active) in [23]; 0.126 µM (active) in experiment [24].
